Laboratory results: patent publication US9499538B2, “Estrogen receptor modulators and uses thereof” (Seragon Pharmaceuticals, Inc., priority 2012, dated 2016)

Columns and labels:
MCF-7 cells = experiment: Breast Cancer Cell Viability Assays (MCF-7, CellTiter-Glo); type: cell-based; settings: 5 days' compound exposure; for IC50: Homo sapiens, MCF7, 120 h
How it was run: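 MCF-7 cells (320/well, RPMI with 10% FBS) exposed for 5 days to an eleven-point semilog series, 0.3–0.000003 μM final. Viability read by CellTiter-Glo luminescence, expressed as background-corrected percent of untreated cells.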

ER-α in MCF-7 cells = target: T1, ER-α in MCF-7 cells (Homo sapiens, UniProt P03372); experiment: Breast Cancer Cell ER-α In Cell Western Assay (SP1); type: cell-based; settings: 4 or 24 hr post compound addition; for Emax: MCF7, SP1 antibody, read-out: ER-α In Cell Western Assay (SP1) Max Response; for DC50: SP1 antibody, read-out: ER-α In Cell Western Assay (SP1) IC50
T1 construct: endogenous in cells; host or cells: MCF-7
T1 sequence (P03372 1-595): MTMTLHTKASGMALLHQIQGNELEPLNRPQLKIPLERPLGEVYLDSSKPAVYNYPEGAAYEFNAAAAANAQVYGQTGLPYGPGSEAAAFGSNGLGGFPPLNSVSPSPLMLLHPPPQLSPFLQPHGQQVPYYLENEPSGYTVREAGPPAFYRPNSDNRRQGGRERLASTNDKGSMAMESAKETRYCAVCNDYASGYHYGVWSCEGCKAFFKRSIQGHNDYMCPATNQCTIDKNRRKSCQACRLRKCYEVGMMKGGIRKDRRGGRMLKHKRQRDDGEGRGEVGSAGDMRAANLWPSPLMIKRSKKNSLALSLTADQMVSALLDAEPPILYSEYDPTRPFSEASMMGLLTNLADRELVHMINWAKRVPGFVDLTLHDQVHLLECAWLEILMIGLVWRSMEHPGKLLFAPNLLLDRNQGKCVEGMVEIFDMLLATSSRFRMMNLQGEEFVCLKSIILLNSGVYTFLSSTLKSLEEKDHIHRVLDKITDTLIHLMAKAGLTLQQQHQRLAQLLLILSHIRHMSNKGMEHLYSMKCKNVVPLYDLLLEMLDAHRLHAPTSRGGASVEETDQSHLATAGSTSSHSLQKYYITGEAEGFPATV
How it was run: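 MCF-7 cells in charcoal-stripped FBS medium, treated with 11-point semilog dilutions (0.3–0.000003 μM final) for 4 or 24 h. Fixed cells immunostained with SP1 antibody (800 nm) and DRAQ5 DNA (700 nm); ER/DNA ratio expressed as % of untreated cells.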

Structure (SMILES)	IC50 (MCF-7 cells) [µM]	Emax (ER-α in MCF-7 cells) [%]	DC50 (ER-α in MCF-7 cells) [µM]	MCF7 Viability Assay Max Response (MCF-7 cells)
CC/C(=C(/c1ccc(/C=C/C(=O)O)cc1)c1ccc2c(cnn2CCO)c1)c1ccc(F)cc1Cl [Example 199, (E)-3-(4-((E)-2-(2-Chloro-4-fluorophenyl)-1-(1-(2-hydroxyethyl)-1H-indazol-5-yl)but-1-en-1-yl)phenyl)acrylic acid]	≤ 0.1	≥ 40	≤ 0.1	++ (++ = a single % value ≧ 40%)
CC/C(=C(/c1ccc(/C=C/C(=O)O)cc1)c1ccc2nn(CCO)cc2c1)c1ccc(F)cc1Cl [Example 200, (E)-3-(4-((E)-2-(2-Chloro-4-fluorophenyl)-1-(2-(2-hydroxyethyl)-2H-indazol-5-yl)but-1-en-1-yl)phenyl)acrylic acid]	> 0.1	≥ 40	≤ 0.1	++ (++ = a single % value ≧ 40%)
O=C(O)/C=C/c1ccc(/C(=C(\c2ccccc2)C2CCC2)c2ccc3c(c2)c(F)nn3CCO)cc1 [Example 201, (E)-3-(4-((E)-2-Cyclobutyl-1-(3-fluoro-1-(2-hydroxyethyl)-1H-indazol-5-yl)-2-phenylvinyl)phenyl)acrylic acid]	> 0.1	≥ 40	≤ 0.1	++ (++ = a single % value ≧ 40%)
O=c1[nH]c(/C=C/c2ccc(/C(=C(\c3ccccc3)C3CCC3)c3ccc4[nH]nc(F)c4c3)cc2)no1 [Example 202, 3-((E)-4-((E)-2-Cyclobutyl-1-(3-fluoro-1H-indazol-5-yl)-2-phenylvinyl)styryl)-1,2,4-oxadiazol-5(4H)-one]	≤ 0.1	≥ 40	≤ 0.1	++ (++ = a single % value ≧ 40%)
NNC(=O)/C=C/c1ccc(/C(=C(\c2ccccc2)C2CCC2)c2ccc3[nH]nc(F)c3c2)cc1 [Example 203, (E)-3-(4-((E)-2-Cyclobutyl-1-(3-fluoro-1H-indazol-5-yl)-2-phenylvinyl)phenyl)acrylohydrazide]	≤ 0.1	≥ 40	≤ 0.1	++ (++ = a single % value ≧ 40%)
Fc1n[nH]c2ccc(/C(=C(/c3ccccc3)C3CCC3)c3ccc(/C=C/c4cccnc4)cc3)cc12 [Example 205, 5-((E)-2-Cyclobutyl-2-phenyl-1-(4-((E)-2-(pyridin-3-yl)vinyl)phenyl)vinyl)-3-fluoro-1H-indazole]	> 0.1	≥ 40	≤ 0.1	+ (+ = a single % value < 40%)
Fc1n[nH]c2ccc(/C(=C(/c3ccccc3)C3CCC3)c3ccc(/C=C/c4cn[nH]c4)cc3)cc12 [Example 206, 5-((E)-1-(4-((E)-2-(1H-Pyrazol-4-yl)vinyl)phenyl)-2-cyclobutyl-2-phenylvinyl)-3-fluoro-1H-indazole]	≤ 0.1	≥ 40	≤ 0.1	+ (+ = a single % value < 40%)
Fc1n[nH]c2ccc(/C(=C(/c3ccccc3)C3CCC3)c3ccc(/C=C/c4ccn[nH]4)cc3)cc12 [Example 207, 5-((E)-1-(4-((E)-2-(1H-Pyrazol-5-yl)vinyl)phenyl)-2-cyclobutyl-2-phenylvinyl)-3-fluoro-1H-indazole]	> 0.1	≥ 40	≤ 0.1	+ (+ = a single % value < 40%)
Fc1n[nH]c2ccc(/C(=C(/c3ccccc3)C3CCC3)c3ccc(/C=C/c4nnco4)cc3)cc12 [Example 208, 2-((E)-4-((E)-2-Cyclobutyl-1-(3-fluoro-1H-indazol-5-yl)-2-phenylvinyl)styryl)-1,3,4-oxadiazole]	≤ 0.1	≥ 40	≤ 0.1	++ (++ = a single % value ≧ 40%)
Fc1n[nH]c2ccc(/C(=C(/c3ccccc3)C3CCC3)c3ccc(/C=C/c4ncon4)cc3)cc12 [Example 209, 3-((E)-4-((E)-2-Cyclobutyl-1-(3-fluoro-1H-indazol-5-yl)-2-phenylvinyl)styryl)-1,2,4-oxadiazole]	≤ 0.1	≥ 40	≤ 0.1	+ (+ = a single % value < 40%)

More lines, main results first:

IC50 (MCF-7 cells) [µM]	Emax (ER-α in MCF-7 cells) [%]	DC50 (ER-α in MCF-7 cells) [µM]	Structure (SMILES)	MCF7 Viability Assay Max Response (MCF-7 cells)
≤ 0.1	≥ 40	≤ 0.1	N=C(N)/C=C/c1ccc(/C(=C(\c2ccccc2)C2CCC2)c2ccc3[nH]nc(F)c3c2)cc1 [Example 210]	++ (++ = a single % value ≧ 40%)
> 0.1	≥ 40	> 0.1	CC/C(=C(/c1ccc(/C=C/C(=O)O)cc1)c1ccc2[nH]ncc2c1)c1ccc(C(N)=O)cc1F [Example 211, (E)-3-(4-((E)-2-(4-Carbamoyl-2-fluorophenyl)-1-(1H-indazol-5-yl)but-1-en-1-yl)phenyl)acrylic acid]	+ (+ = a single % value < 40%)
≤ 0.1	≥ 40	≤ 0.1	O=C(O)/C=C/c1ccc(/C(=C(\c2ccc(F)cc2Cl)C2CCC2)c2coc3c(O)cccc23)cc1 [Example 212, (E)-3-(4-((E)-2-(2-Chloro-4-fluorophenyl)-2-cyclobutyl-1-(7-hydroxybenzofuran-3-yl)vinyl)phenyl)acrylic acid]	++ (++ = a single % value ≧ 40%)
≤ 0.1	≥ 40	≤ 0.1	O=C(O)/C=C/c1ccc(/C(=C(\c2ccncc2Cl)C2CCC2)c2coc3c(O)cccc23)cc1 [Example 213, (E)-3-(4-((E)-2-(3-Chloropyridin-4-yl)-2-cyclobutyl-1-(7-hydroxybenzofuran-3-yl)vinyl)phenyl)acrylic acid]	++ (++ = a single % value ≧ 40%)
> 0.1	≥ 40	> 0.1	O=C(O)/C=C/c1ccc(/C(=C(\c2ccnc(O)c2)C2CCC2)c2ccc3[nH]nc(F)c3c2)cc1 [Example 214, (E)-3-(4-((E)-2-Cyclobutyl-1-(3-fluoro-1H-indazol-5-yl)-2-(2-hydroxypyridin-4-yl)vinyl)phenyl)acrylic acid]	+ (+ = a single % value < 40%)
≤ 0.1	≥ 40	≤ 0.1	Fc1n[nH]c2ccc(/C(=C(/c3ccccc3)C3CCC3)c3ccc(/C=C/c4ccccn4)cc3)cc12 [Example 215]	++ (++ = a single % value ≧ 40%)
≤ 0.1	≥ 40	≤ 0.1	COc1ccc(/C(=C(\c2ccc(/C=C/C(=O)O)cc2)c2ccc3[nH]ncc3c2)C2CCC2)c(Cl)c1 [Example 216, (E)-3-(4-((E)-2-(2-Chloro-4-methoxyphenyl)-2-cyclobutyl-1-(1H-indazol-5-yl)vinyl)phenyl)acrylic acid]	++ (++ = a single % value ≧ 40%)
≤ 0.1	≥ 40	≤ 0.1	Cc1cc(CO)ccc1/C(=C(\c1ccc(/C=C/C(=O)O)cc1)c1ccc2[nH]nc(F)c2c1)C1CCC1 [Example 217, (E)-3-(4-((E)-2-Cyclobutyl-1-(3-fluoro-1H-indazol-5-yl)-2-(4-(hydroxymethyl)-2-methylphenyl)vinyl)phenyl)acrylic acid]	++ (++ = a single % value ≧ 40%)
≤ 0.1	≥ 40	≤ 0.1	N#Cc1ccc(/C(=C(\c2ccc(/C=C/C(=O)O)cc2)c2ccc3scnc3c2)C2CCC2)c(Cl)c1 [Example 218, (E)-3-(4-((E)-1-(Benzo[d]thiazol-5-yl)-2-(2-chloro-4-cyanophenyl)-2-cyclobutylvinyl)phenyl)acrylic acid]	++ (++ = a single % value ≧ 40%)
≤ 0.1	≥ 40	≤ 0.1	N#Cc1cc(Cl)ccc1/C(=C(\c1ccc(/C=C/C(=O)O)cc1)c1ccc2scnc2c1)C1CCC1 [Example 219, (E)-3-(4-((E)-1-(Benzo[d]thiazol-5-yl)-2-(4-chloro-2-cyanophenyl)-2-cyclobutylvinyl)phenyl)acrylic acid]	++ (++ = a single % value ≧ 40%)
≤ 0.1	≥ 40	≤ 0.1	O=C(O)/C=C/c1ccc(/C(=C(\c2ccc(Cl)cc2Cl)C2CCC2)c2ccc3nccn3c2)cc1 [Example 220, (E)-3-(4-((E)-2-Cyclobutyl-2-(2,4-dichlorophenyl)-1-(imidazo[1,2-a]pyridin-6-yl)vinyl)phenyl)acrylic acid]	++ (++ = a single % value ≧ 40%)
